Data as given in US7919577B2, “Adrenocorticotropic hormone analogs and related methods” (Colorado Seminary, priority 2004, dated 2011).

Legend:
[1] = test system: dexamethasone-suppressed male FVB/N mice; experiment: in vivo Serum Corticosteroid Inhibition Assay (Example 2); parameters: species or system mouse; settings: mACTH(1-24) alone 120 minutes after dexamethasone, blood one hour later
Protocol: The in vivo Serum Corticosteroid Inhibition Assay can include sequential administration of the test compound and the corticosteroid-producing compound by the following steps: first, an agent to suppress endogenous ACTH production was administered to a mouse subject, such as an intraperitoneal injection of dexamethasone; second, after waiting a suitable period of time for suppression of endogenous ACTH production (e.g., 1.5-2.0 hours), a test compound was administered to the mouse by a suitable method, such as intraperitoneal injection; third, after waiting a suitable period of time (e.g., 1 hour) for action of the test compound, a compound with corticosteroid-producing activity can be administered to the mouse by a suitable method, such as intraperitoneal injection; and fourth, after waiting a suitable period of time for the biological activity of both administered compounds to occur (e.g., 1 hour), a blood sample was taken from the subject and the level of serum corticosterone was determined by a suitable method, such as a competitive radioimmunoassay using ^125I RIA kit (ICN, Costa Mesa, Calif.). Optionally, steps two and three can be reversed (administering the corticosteroid-producing compound first, followed by administration of the test compound). The in vivo Serum Corticosteroid Inhibition Assay can also include co-administration of the test compound and the corticosteroid-producing compound by the following steps: first, an agent to suppress endogenous ACTH production was administered to a mouse subject, such as an intraperitoneal injection of dexamethasone; second, after waiting a suitable period of time for suppression of endogenous ACTH production (e.g., 1.5-2.0 hours), the corticosteroid-producing compound and a test compound were co-administered to the mouse by a suitable method, such as intraperitoneal injection; and third, after waiting a suitable period of time for the biological activity of both administered compounds to occur (e.g., 1 hour), a blood sample was taken from the subject and the level of serum corticosterone was determined by a suitable method, such as a competitive radioimmunoassay using ^125I RIA kit (ICN, Costa Mesa, Calif.). Also, in some embodiments, the first step in any in vivo Serum Corticosteroid Inhibition Assay can be replaced by a measurement of the initial endogenous corticosteroid or corticosteroid level in the blood of the subject in the manner of step four, instead of administering the agent to suppress ACTH production. Example 2 describes murine in vivo Serum Corticosteroid Inhibition Assays in detail.
A series of separate in vivo Serum Corticosteroid Inhibition Assays were performed to identify ACTH analogs that inhibit ACTH adrenal hormone production in vivo. The serum corticosterone levels of dexamethasone-suppressed mice were measured as described in Example 2 after administration of (1) ACTH (corticosteroid-producing compound), (2) an ACTH analog (test compound) followed by subsequent administration of ACTH, (3) a combination of ACTH and the ACTH analog and (4) the ACTH analog alone.
The in vivo Serum Corticosteroid Inhibition Assay was performed according the following method. The ACTH analog test compounds, such as those showing low activities in Example 1, were tested for their abilities to inhibit adrenal hormone production induced by unmodified ACTH.
First, two to three month-old male FVB/N mice from our colony, five per group, were injected intraperitoneally with dexamethasone (0.4 mg/0.1 ml PBS per mouse; Sigma, St. Louis, Mo.) to suppress their endogenous ACTH production.
Second, ninety to one hundred twenty minutes later, animals were injected subcutaneously between the shoulder blades with wild type ACTH and/or test ACTH analog peptides (1 μg/0.1 mL PBS/0.5% BSA) or with vehicle alone (0.1 mL PBS/0.5% BSA). […]

[2] = target: T1, adrenal ACTH receptors such as MC-2R (explanted adrenal membrane) (Mus musculus, UniProt Q64326+Q9D159); experiment: in vitro Serum-free Adrenal Competitive Binding Assay (Example 3); settings: cold peptide at 10 nM, 100 nM, 1000 nM; CPM; FIG. 3
T1 construct: the adrenal halves were macerated or otherwise dissociated using Dounce Homogenizer to form a membrane fraction; from tissue; host or cells: mouse adrenal glands (explanted, homogenised to a membrane fraction)
Description: ACTH analog compounds that bind to adrenal membrane with a greater affinity than endogenous unmodified ACTH, and are able to displace unmodified ACTH can be identified using an in vitro Serum-free Adrenal Competitive Binding Assay (Example 3). […] A higher CPM level indicates the presence of greater amounts of the radiolabelled compound. […] Column 220 indicates the level of radio-labeled unmodified mACTH(1-24) detected after combining the explanted adrenal membrane with only the radio-labeled mACTH(1-24) for 2 hours (no competitive binding). Columns 230, 240, and 250 show the results of competitive binding assays for binding of non-radio-labeled (“cold”) mACTH(1-24) to displace the radio-labeled mACTH(1-24) from the explanted adrenal membrane (measured in column 220) by competitive binding to receptors such as MC-2R on the adrenal membrane. […]
ACTH analogs with the ability to bind adrenal receptors with a greater affinity than compounds with known adrenal binding activity (preferably ACTH) can also be identified by performing an in vitro Adrenal Competitive Binding Assay, whereby measurement of the reduction in the amount of the radiolabelled adrenal-binding compound (e.g., ACTH) is measured at various concentrations of non-radio-labeled ACTH analog test compound in a medium containing explanted adrenal membrane. […]

[3] = cited from earlier work

T1 sequence (Q64326 whole entry): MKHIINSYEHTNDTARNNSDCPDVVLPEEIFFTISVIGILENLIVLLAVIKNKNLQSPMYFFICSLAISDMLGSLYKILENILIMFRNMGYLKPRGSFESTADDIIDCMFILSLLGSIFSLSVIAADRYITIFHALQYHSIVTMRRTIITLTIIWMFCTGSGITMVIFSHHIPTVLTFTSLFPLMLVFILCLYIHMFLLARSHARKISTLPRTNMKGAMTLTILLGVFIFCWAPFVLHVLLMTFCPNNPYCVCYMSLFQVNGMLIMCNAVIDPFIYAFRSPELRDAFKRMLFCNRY
T1 sequence (Q9D159 whole entry): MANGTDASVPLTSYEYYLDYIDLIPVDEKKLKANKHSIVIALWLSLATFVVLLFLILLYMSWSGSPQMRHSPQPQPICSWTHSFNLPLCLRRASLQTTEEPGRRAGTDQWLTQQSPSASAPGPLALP

N-Ser^1-Tyr-Ser-Met-Glu^5-His-Phe-Arg-Trp-Gly^10-Lys-Pro-Val-Gly-Lys^15-Lys-Arg-Arg-Pro-Val^20-Lys-Val-Tyr-Pro-Ac [mACTH(1-24), reference compound]
serum corticosterone at 180 minutes [1]: 500 ± 76 ng/mL
serum corticosterone at 180 minutes ([1]; listed as ACTH): 500 ± 76 ng/mL
displacement of radio-labeled mACTH(1-24) from explanted adrenal membrane [2]: displacement of the radio-labeled mACTH(1-24)
half life in blood [3]: less than 20 minutes
